The values that follow are results of earlier work, collected in PubChem BioAssay AID1259409 (Chemical Carcinogenesis Research Information System (CCRIS), 2018).

For the data set, the system named is rodent chemically induced tumor inhibition, incidence and multiplicity. Put plainly: CCRIS tumor inhibitor studies. Conditions: Dose [Inhibitor]: 0.

SMILES strings stand for the structures.

For the molecule `C[C@]12CCCCC1=CC[C@@H]1[C@@H]2CC[C@]2(C)C(=O)[C@H](F)C[C@@H]12`, the “tumour outcome (control, treated, inhibition, significance)” value reads like this: (Carcinogen: 7,12-DIMETHYLBENZ[A]ANTHRACENE, 57-97-6, 200 UG IN 0.2 ML ACETONE 3/WK 1 HR BEFORE PROMOTER ON 2 D AND ALONE ON 1 D BEGINNING 18 D POST CARCINOGEN AND CONTINU, Route [Inhibitor]: DERMAL, Species: MOUSE, Strain/Sex: CD-1/FEMALE, Target Tissue: Type of Lesion: SKIN: PAPILLOMA, Dose [Carcinogen]: 200 NMOL IN 0.2 ML ACETONE ONCE AND MICE KEPT IN DARKENED ROOM FOR 48 HR POST INITIATION, Promoter: 12-O-TETRADECANOYLPHORBOL-13-ACETATE, 16561-29-8) 92%, 70%, 24%, not calculated; (Carcinogen: AZOXYMETHANE, 25843-45-2, 200 PPM IN DIET BEGINNING PRIOR TO CARCINOGEN DOSE AND CONTINUING FOR DURATION OF STUDY (STUDY DURATION: 54 WK), Route [Inhibitor]: ORAL, Species: RAT, Strain/Sex: F344/MALE, Target Tissue: Type of Lesion: COLON: ADENOCARCINOMA, Dose [Carcinogen]: 15 MG/KG 1/WK FOR 2 WK, Promoter: NONE USED) 72%, 50%, 31%, p<0.05; (Carcinogen: AZOXYMETHANE, 25843-45-2, 200 PPM IN DIET BEGINNING PRIOR TO CARCINOGEN DOSE AND CONTINUING FOR DURATION OF STUDY (STUDY DURATION: 54 WK), Route [Inhibitor]: ORAL, Species: RAT, Strain/Sex: F344/MALE, Target Tissue: Type of Lesion: COLON: ADENOMA, Dose [Carcinogen]: 15 MG/KG 1/WK FOR 2 WK, Promoter: NONE USED) 14%, 8%, 43%, not calculated; (Carcinogen: AZOXYMETHANE, 25843-45-2, 200 PPM IN DIET BEGINNING PRIOR TO CARCINOGEN DOSE AND CONTINUING FOR DURATION OF STUDY (STUDY DURATION: 54 WK), Route [Inhibitor]: ORAL, Species: RAT, Strain/Sex: F344/MALE, Target Tissue: Type of Lesion: SMALL INTESTINE: ADENOCARCINOMA, Dose [Carcinogen]: 15 MG/KG 1/WK FOR 2 WK, Promoter: NONE USED) 50%, 28%, 44%, not calculated; (Carcinogen: AZOXYMETHANE, 25843-45-2, 200 PPM IN DIET BEGINNING PRIOR TO CARCINOGEN DOSE AND CONTINUING FOR STUDY DURATION (STUDY DURATION: 54 WK), Route [Inhibitor]: ORAL, Species: RAT, Strain/Sex: F344/MALE, Target Tissue: Type of Lesion: SMALL INTESTINE: ADENOMA, Dose [Carcinogen]: 15 MG/KG 1/WK FOR 2 WK, Promoter: NONE USED) 3%, 0%, 100%, not calculated; (Carcinogen: AZOXYMETHANE, 25843-45-2, 400 PPM IN DIET BEGINNING PRIOR TO CARCINOGEN DOSE AND CONTINUING FOR DURATION OF STUDY (STUDY DURATION: 54 WK), Route [Inhibitor]: ORAL, Species: RAT, Strain/Sex: F344/MALE, Target Tissue: Type of Lesion: COLON: ADENOCARCINOMA, Dose [Carcinogen]: 15 MG/KG 1/WK FOR 2 WK, Promoter: NONE USED) 72%, 61%, 15%, not calculated. For the same molecule, the “tumour outcome (control, treated, inhibition, significance)” value reads like this: (Carcinogen: AZOXYMETHANE, 25843-45-2, 400 PPM IN DIET BEGINNING PRIOR TO CARCINOGEN DOSE AND CONTINUING FOR DURATION OF STUDY (STUDY DURATION: 54 WK), Route [Inhibitor]: ORAL, Species: RAT, Strain/Sex: F344/MALE, Target Tissue: Type of Lesion: COLON: ADENOMA, Dose [Carcinogen]: 15 MG/KG 1/WK FOR 2 WK, Promoter: NONE USED) 14%, 6%, 57%, not calculated; (Carcinogen: AZOXYMETHANE, 25843-45-2, 400 PPM IN DIET BEGINNING PRIOR TO CARCINOGEN DOSE AND CONTINUING FOR DURATION OF STUDY (STUDY DURATION: 54 WK), Route [Inhibitor]: ORAL, Species: RAT, Strain/Sex: F344/MALE, Target Tissue: Type of Lesion: SMALL INTESTINE: ADENOCARCINOMA, Dose [Carcinogen]: 15 MG/KG 1/WK FOR 2 WK, Promoter: NONE USED) 50%, 17%, 66%, p<0.01; (Carcinogen: AZOXYMETHANE, 25843-45-2, 400 PPM IN DIET BEGINNING PRIOR TO CARCINOGEN DOSE AND CONTINUING FOR DURATION OF STUDY (STUDY DURATION: 54 WK), Route [Inhibitor]: ORAL, Species: RAT, Strain/Sex: F344/MALE, Target Tissue: Type of Lesion: SMALL INTESTINE: ADENOMA, Dose [Carcinogen]: 15 MG/KG 1/WK FOR 2 WK, Promoter: NONE USED) 3%, 0%, 100%, not calculated; (Carcinogen: N-METHYL-N-NITROSOUREA, 684-93-5, 0.1% IN DIET FOR DURATION OF STUDY BEGINNING 1 WK PRIOR TO CARCINOGEN DOSE (STUDY DURATION: 187 D), Route [Inhibitor]: ORAL, Species: RAT, Strain/Sex: SPRAGUE-DAWLEY/FEMALE, Target Tissue: Type of Lesion: MAMMARY GLAND: CARCINOMA, Dose [Carcinogen]: 50 MG/KG ONCE AT 50 D OF AGE, Promoter: NONE USED) 100%, 100%, 0%, not significant; (Carcinogen: N-METHYL-N-NITROSOUREA, 684-93-5, 0.2% IN DIET FOR 2 WK BEGINNING 1 WK PRIOR TO CARCINOGEN DOSE (STUDY DURATION: 187 D), Route [Inhibitor]: ORAL, Species: RAT, Strain/Sex: SPRAGUE-DAWLEY/FEMALE, Target Tissue: Type of Lesion: MAMMARY GLAND: CARCINOMA, Dose [Carcinogen]: 50 MG/KG ONCE AT 50 D OF AGE, Promoter: NONE USED) 100%, 100%, 0%, not significant; (Carcinogen: N-METHYL-N-NITROSOUREA, 684-93-5, 0.2% IN DIET FOR DURATION OF STUDY BEGINNING 1 WK POST CARCINOGEN DOSE (STUDY DURATION: 180 D), Route [Inhibitor]: ORAL, Species: RAT, Strain/Sex: SPRAGUE-DAWLEY/FEMALE, Target Tissue: Type of Lesion: MAMMARY GLAND: CARCINOMA, Dose [Carcinogen]: 50 MG/KG ONCE AT 50 D OF AGE, Promoter: NONE USED) 100%, 95%, 5%, not significant. The “tumour outcome (control, treated, inhibition, significance)” value (Carcinogen: N-METHYL-N-NITROSOUREA, 684-93-5, 0.2% IN DIET FOR DURATION OF STUDY BEGINNING 1 WK PRIOR TO CARCINOGEN DOSE (STUDY DURATION: 187 D), Route [Inhibitor]: ORAL, Species: RAT, Strain/Sex: SPRAGUE-DAWLEY/FEMALE, Target Tissue: Type of Lesion: MAMMARY GLAND: CARCINOMA, Dose [Carcinogen]: 50 MG/KG ONCE AT 50 D OF AGE, Promoter: NONE USED) is listed as 100%, 100%, 0%, not significant.
